Measurements from publication PMC11859916, “Design, Synthesis, and Biological Evaluation of a Novel [^18F]AlF-H3RESCA-FAPI Radiotracer Targeting Fibroblast Activation Protein” (Pharmaceuticals, 2025).

What was measured:
[1] = target: T1, recombinant human FAP protein (Homo sapiens, UniProt Q12884); experiment: Biacore SPR binding affinity measurement; settings: read-out: KD (equilibrium dissociation constant)
T1 construct: purchased Sino Biological Inc., Beijing, China 10464-H07H
T1 sequence (Q12884 1-760): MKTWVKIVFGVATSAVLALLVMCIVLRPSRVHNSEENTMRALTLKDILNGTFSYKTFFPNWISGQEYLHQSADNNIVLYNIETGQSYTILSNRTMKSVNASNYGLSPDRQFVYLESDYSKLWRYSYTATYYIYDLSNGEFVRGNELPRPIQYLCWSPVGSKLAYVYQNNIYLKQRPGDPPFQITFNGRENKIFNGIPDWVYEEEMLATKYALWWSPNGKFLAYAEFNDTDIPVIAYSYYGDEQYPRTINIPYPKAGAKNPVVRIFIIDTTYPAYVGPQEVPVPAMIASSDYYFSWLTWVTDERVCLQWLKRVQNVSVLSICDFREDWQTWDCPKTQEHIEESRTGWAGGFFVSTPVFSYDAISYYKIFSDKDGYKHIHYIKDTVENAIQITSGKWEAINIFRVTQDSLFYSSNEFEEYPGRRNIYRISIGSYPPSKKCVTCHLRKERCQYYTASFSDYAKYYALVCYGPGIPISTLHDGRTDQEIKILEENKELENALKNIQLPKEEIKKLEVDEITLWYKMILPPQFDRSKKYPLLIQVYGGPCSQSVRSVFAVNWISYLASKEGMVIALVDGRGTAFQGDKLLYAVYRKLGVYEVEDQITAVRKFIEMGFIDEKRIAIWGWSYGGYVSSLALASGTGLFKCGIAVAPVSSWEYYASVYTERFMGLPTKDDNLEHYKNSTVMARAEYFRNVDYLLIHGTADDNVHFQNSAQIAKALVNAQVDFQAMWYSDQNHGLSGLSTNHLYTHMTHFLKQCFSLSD
Protocol: In order to determine the binding kinetics between ligands and human FAP protein (10464-H07H, Sino Biological Inc., Beijing, China), the Biacore SPR interaction study was conducted. The binding affinity is expressed by the equilibrium dissociation constant (KD) (M), which is calculated from the values of the measured binding rate constant (ka) (M^−1 s^−1) and dissociation rate (kd) (s^−1).

[2] = Octanol-water partition coefficient (n-octanol/PBS); assay type: physicochemical; settings: n-octanol/PBS 1:1, ambient temperature
Protocol: Radiotracers [^68Ga]Ga-DOTA-FAPI-04 and [^18F]AlF-H3RESCA-FAPI (0.37 MBq, about 50 µL) were added to tubes containing n-octanol/PBS mixture (1 mL, 1:1). The mixture was vortexed vigorously for 5 min at ambient temperature and then centrifuged for five min at 8000 rpm. In each phase, three samples (each 50 µL) were removed and measured in γ-counter (PerkinElmer). The partition coefficient was expressed as an equation as follows:(1) LogD7.4=LogCPM(n−octanol)/CPM(PBS)

Row | Kd [1] [nM] | logD7.4 (octanol-water partition coefficient) [2] | SMILES
1 | < 0.0101 | – | N#C[C@@H]1CC(F)(F)CN1C(=O)CNC(=O)c1ccnc2ccc(OCCCN3CCN(C(=O)Cc4ccc(CN(CC(=O)O)[C@@H]5CCCC[C@H]5N(CC(=O)O)CC(=O)O)cc4)CC3)cc12 [H3RESCA-FAPI, 2,2′-(((1R,2R)-2-((carboxymethyl)(4-(2-(4-(3-((4-((2-((S)-2-cyano-4,4-difluoropyrrolidin-1-yl)-2-oxoethyl)carbamoyl)quinolin-6-yl)oxy)propyl)piperazin-1-yl)-2-oxoethyl)benzyl)amino)cyclohexyl)azanediyl)diacetic acid]
2 | – | −3.53 ± 0.05 | N#C[C@@H]1CC(F)(F)CN1C(=O)CNC(=O)c1ccnc2ccc(OCCCN3CCN(C(=O)CN4CCN(CC(=O)[O-])CCN(CC(=O)O)CCN(CC(=O)[O-])CC4)CC3)cc12.[68Ga+3] [[^68Ga]Ga-DOTA-FAPI-04]
